Data on 1 molecule can be found in US9840520B2, “Heterocyclic hydroxamic acids as protein deacetylase inhibitors and dual protein deacetylase-protein kinase inhibitors and methods of use thereof” (The Regents of the University of Colorado, A Body Corporate, priority 2014, dated 2017).

The GI50 is the concentration that inhibits growth by half. A low value points to greater sensitivity of the cells.

Common to all, as to format: cell-based
In one test the test system is UACC-62. In words: NCI60 tumour cell line screen, UACC-62. Conditions: Homo sapiens; UACC-62, Melanoma.
The next test deals with SK-MEL-28. Briefly: NCI60 tumour cell line screen, SK-MEL-28. The following applies: Homo sapiens; SK-MEL-28, Melanoma.
The next test has as its system M14. In words: NCI60 tumour cell line screen, M14. The following applies: Homo sapiens; M14, Melanoma.
In another test the test system is SW-620. Briefly: NCI60 tumour cell line screen, SW-620. Conditions: Homo sapiens; SW-620, Colon Cancer.
The test system of another test is OVCAR-5. Briefly: NCI60 tumour cell line screen, OVCAR-5. Conditions: Homo sapiens; OVCAR-5, Ovarian Cancer.
The next test relates to HOP-62. In words: NCI60 tumour cell line screen, HOP-62. The following applies: Homo sapiens; HOP-62, Non-Small Cell Lung Cancer.
For a further test, the system named is SF-539. In words: NCI60 tumour cell line screen, SF-539. Conditions: Homo sapiens; SF-539, CNS Cancer.
Another test has as its system RXF393. Briefly: NCI60 tumour cell line screen, RXF393. Conditions: Homo sapiens, RXF 393; RXF393, Renal Cancer.
The subject of the next test is PC-3. In words: NCI60 tumour cell line screen, PC-3. Conditions: Homo sapiens; PC-3, Prostate Cancer.
In the next test the test system is SK-OV-3. Briefly: NCI60 tumour cell line screen, SK-OV-3. The following applies: Homo sapiens; SK-OV-3, Ovarian Cancer.
A further test has as its system LOXIMVI. Briefly: NCI60 tumour cell line screen, LOXIMVI. Conditions: Homo sapiens, LOX IMVI, Melanoma.
For a further test, the system named is MALME-3M. In words: NCI60 tumour cell line screen, MALME-3M. Conditions: Homo sapiens, Melanoma.
The next test relates to MDA-MB-231/ATCC. In words: NCI60 tumour cell line screen, MDA-MB-231/ATCC. Conditions: Homo sapiens, Breast Cancer.
In another test the test system is HS578T. Briefly: NCI60 tumour cell line screen, HS578T. Conditions: Homo sapiens, Hs-578T, Breast Cancer.

Turning to `O=C(CCCCCOc1ccc(Nc2nc(NC3CCCCC3)c3nc[nH]c3n2)cc1)NO` [Example 3, 6-(4-(6-(cyclohexylamino)-9H-purin-2-ylamino)phenoxy)-N-hydroxyhexanamide], the GI50 stood at 2220 nM in the test on UACC-62; 3640 nM with SK-MEL-28; 1960 nM in the test with M14; 895 nM with SW-620; 2260 nM in the test with OVCAR-5; 2960 nM in the test with HOP-62. Also, the concentration for 50% growth inhibition (GI50) in the test with SF-539 was 1570 nM; in the test with RXF393, 1900 nM; with PC-3 it was 2980 nM; in the test on SK-OV-3, 2520 nM; with LOXIMVI, 1180 nM; with MALME-3M, 2490 nM. In addition, the results for the concentration for 50% growth inhibition (GI50) with MDA-MB-231/ATCC and in the test on HS578T were 1930 nM and 1610 nM, respectively.
